Data from patent publication US8710224B2, “Heterocyclic compounds as CCR2B antagonists” (AstraZeneca AB, priority 2004, dated 2014).

Molecular target: T1, recombinant human CCR5 receptor (Homo sapiens, UniProt P51681)
T1 construct: expressed in transfected cells; host or cells: Chinese hamster ovary (CHO) cells; membranes
Experiment: Radioligand binding assay for inhibition of the binding of MIP-1α
Conditions: displacement of 0.1 nM iodinated MIP-1α; membranes of Chinese hamster ovary cells expressing CCR5
Outline: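 Membranes from CHO cells expressing recombinant human CCR5 were incubated with 0.1 nM iodinated MIP-1α, scintillation proximity beads and compound at various concentrations. Bound radioligand was measured by scintillation counting.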

T1 sequence (P51681 whole entry): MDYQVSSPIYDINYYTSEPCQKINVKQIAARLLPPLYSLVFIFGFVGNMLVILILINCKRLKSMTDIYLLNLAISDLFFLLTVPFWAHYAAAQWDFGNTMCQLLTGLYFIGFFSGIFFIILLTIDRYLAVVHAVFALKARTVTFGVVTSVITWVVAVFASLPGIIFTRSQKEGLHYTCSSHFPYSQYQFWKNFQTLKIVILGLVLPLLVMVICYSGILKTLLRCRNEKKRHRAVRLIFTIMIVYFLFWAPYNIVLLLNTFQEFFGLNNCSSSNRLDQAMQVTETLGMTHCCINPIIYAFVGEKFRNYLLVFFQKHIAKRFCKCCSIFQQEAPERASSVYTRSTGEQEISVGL

IC50 [µM]	SMILES
< 10	CC(C)N1CCN[C@@H](C(=O)N2CCN(C(=O)Nc3ccc(C(F)(F)F)cn3)CC2)C1 [Example 311, 4-{[(2R)-4-isopropylpiperazin-2-yl]carbonyl}-N-[5-(trifluoromethyl)pyridin-2-yl]piperazine-1-carboxamide]
< 10	CS(=O)(=O)c1ccc(CN2CCC[C@@H](CN3CCN(C(=O)Nc4ccc(Cl)c(Cl)c4)CC3)C2)c(Cl)c1 [Example 322, 4-({(3R)-1-[2-Chloro-4-(methylsulfonyl)benzyl]piperidin-3-yl}methyl)-N-(3,4-dichlorophenyl)piperazine-1-carboxamide]
< 10	Cc1ccc(NC(=O)N2CCN(C[C@@H]3CCCN(CCCc4ccc(S(C)(=O)=O)cc4)C3)CC2)cc1Cl [Example 324, N-(3-Chloro-4-methylphenyl)-4-[((3R)-1-{3-[4-(methylsulfonyl)phenyl]propyl}piperidin-3-yl)methyl]piperazine-1-carboxamide]
< 10	CS(=O)(=O)c1ccc(CCCN2CCC[C@@H](CN3CCN(C(=O)Nc4ccc(Cl)cc4)CC3)C2)cc1 [Example 325, N-(4-Chlorophenyl)-4-[((3R)-1-{3-[4-(methylsulfonyl)phenyl]propyl}piperidin-3-yl)methyl]piperazine-1-carboxamide]
< 10	CS(=O)(=O)c1ccc(CCCN2CCC[C@@H](CN3CCN(C(=O)Nc4ccc(C(F)(F)F)cc4)CC3)C2)cc1 [Example 326, 4-[((3R)-1-{3-[4-(Methylsulfonyl)phenyl]propyl}piperidin-3-yl)methyl]-N-[4-(trifluoromethyl)phenyl]piperazine-1-carboxamide]
< 10	CS(=O)(=O)c1ccc(CCCN2CCC[C@@H](CN3CCN(C(=O)Nc4cccc(Cl)c4)CC3)C2)cc1 [Example 327, N-(3-Chlorophenyl)-4-[((3R)-1-{3-[4-(methylsulfonyl)phenyl]propyl}piperidin-3-yl)methyl]piperazine-1-carboxamide]
< 10	CS(=O)(=O)c1ccc(CCCN2CCC[C@@H](CN3CCN(C(=O)Nc4ccc(Cl)c(Cl)c4)CC3)C2)cc1 [Example 328, N-(3,4-Dichlorophenyl)-4-[((3R)-1-{3-[4-(methylsulfonyl)phenyl]propyl}piperidin-3-yl)methyl]piperazine-1-carboxamide]
